# Source: EP0275431A1, “Novel anthracycline derivatives, a process for preparing same and their use as medicaments” (MICROBIAL CHEMISTRY RESEARCH FOUNDATION, priority 1986, dated 1988)
# Key:
# [1] = Solubility in phosphate buffer solution (pH 7.4) at room temperature; type: physicochemical; conditions: aqueous buffer
# Procedure: The phosphate buffer solution was prepared by mixing 0.05M potassium dihydrogenphosphate (KH2PO4) with an aqueous solution of sodium hydroxide.
# [2] = tested on: mouse leukemia L-1210 cells; assay: Antitumor activity: increase of life span of mice transplanted intraperitoneally with leukemia L-1210 cells; conditions: beginning 24 hours after transplantation, observed for 30 days, CDF mice
# Procedure: To assess the antitumor activity of the compounds of this invention against tumors in test animals, 1 x 10^5 mouse leukemia L-1210 cells mouse were transplanted intraperitoneally to CDF, mice. […] The survival time, in days, of the compound-treated group (T) was calculated, and that of the control group (C) receiving physiological saline solution alone was also calculated. Then, the increase of life span (T/C, %) was determined.
# [3] = Dose 0.15 mg/kg/day intraperitoneally for 9 consecutive days
# [4] = Dose 0.3 mg/kg/day intraperitoneally for 9 consecutive days
# [5] = Dose 0.6 mg/kg/day intraperitoneally for 9 consecutive days
# [6] = Dose 1.25 mg/kg/day intraperitoneally for 9 consecutive days
# [7] = Dose 2.5 mg/kg/day intraperitoneally for 9 consecutive days
# [8] = Dose 5 mg/kg/day intraperitoneally for 9 consecutive days
compound,measurement,setting,value
"CCCCC(=O)OCC(=O)C1(O)Cc2c(O)c3c(c(O)c2C(OC2OC(C)C(O)C(O)C2F)C1)C(=O)c1c(OC)cccc1C3=O [Compound 3 of Example 1(b), 7-0-(2.6-dideoxy-2-fluoro-α-L-talopyranosyl) adriamycinone 14-0-valerate]",solubility,[1],< 1 mg/mL
same,"Increase of life span (T/C, %)",[2]; [3],135%
same,"Increase of life span (T/C, %)",[2]; [4],135%
same,"Increase of life span (T/C, %)",[2]; [5],>353%
same,"Increase of life span (T/C, %)",[2]; [6],>353%
same,"Increase of life span (T/C, %)",[2]; [7],>282%
same,"Increase of life span (T/C, %)",[2]; [8],> 306%
"COc1cccc2c1C(=O)c1c(O)c3c(c(O)c1C2=O)CC(O)(C(=O)COC(=O)CCC(=O)O)CC3OC1OC(C)C(O)C(O)C1F [Compound 5 of Example 2(b), 7-0-(2,6-dideoxy-2-fluoro-a-L-talopyranosyl) adriamycinone 14-0-hemisuccinate]",solubility,[1],25 mg/mL
same,"Increase of life span (T/C, %)",[2]; [4],124%
same,"Increase of life span (T/C, %)",[2]; [5],>124%
same,"Increase of life span (T/C, %)",[2]; [6],>292%
same,"Increase of life span (T/C, %)",[2]; [7],>353%
same,"Increase of life span (T/C, %)",[2]; [8],> 353%
"COc1cccc2c1C(=O)c1c(O)c3c(c(O)c1C2=O)CC(O)(C(=O)COC(=O)CCCC(=O)O)CC3OC1OC(C)C(O)C(O)C1F [Compound 7 of Example 3(b), 7-0-(2.6-dideoxy-2-fluoro-a-L-talopyranosyl) adriamycinone 14-0-hemiglutarate]",solubility,[1],26 mg/mL
same,"Increase of life span (T/C, %)",[2]; [3],129%
same,"Increase of life span (T/C, %)",[2]; [4],129%
same,"Increase of life span (T/C, %)",[2]; [5],>235%
same,"Increase of life span (T/C, %)",[2]; [6],282%
same,"Increase of life span (T/C, %)",[2]; [7],>294%
same,"Increase of life span (T/C, %)",[2]; [8],> 306%
"COc1cccc2c1C(=O)c1c(O)c3c(c(O)c1C2=O)CC(O)(C(=O)COC(=O)CCCCC(=O)O)CC3OC1OC(C)C(O)C(O)C1F [Compound 9 of Example 4(b), 7-0-(2.6-dideoxy-2-fluoro-a-L-talopyranosyl) adriamycinone 14-0-hemiadipate]",solubility,[1],33 mg/mL
same,"Increase of life span (T/C, %)",[2]; [3],112%
same,"Increase of life span (T/C, %)",[2]; [4],141%
same,"Increase of life span (T/C, %)",[2]; [5],165%
same,"Increase of life span (T/C, %)",[2]; [6],265%
same,"Increase of life span (T/C, %)",[2]; [7],>353%
same,"Increase of life span (T/C, %)",[2]; [8],>353%
"COc1cccc2c1C(=O)c1c(O)c3c(c(O)c1C2=O)CC(O)(C(=O)COC(=O)CCCCCC(=O)O)CC3OC1OC(C)C(O)C(O)C1F [Compound 11 of Example 5(b), 7-0-(2,6-dideoxy-2-fluoro-α-L-talopyranosyl) adriamycinone 14-0-hemipimelate]",solubility,[1],33 mg/mL
same,"Increase of life span (T/C, %)",[2]; [3],165%
same,"Increase of life span (T/C, %)",[2]; [4],171%
same,"Increase of life span (T/C, %)",[2]; [5],176%
same,"Increase of life span (T/C, %)",[2]; [6],>294%
same,"Increase of life span (T/C, %)",[2]; [7],>271%
same,"Increase of life span (T/C, %)",[2]; [8],>353%
"COc1cccc2c1C(=O)c1c(O)c3c(c(O)c1C2=O)CC(O)(C(=O)COC(=O)CCCCCCC(=O)O)CC3OC1OC(C)C(O)C(O)C1F [Compound 13 of Example 6(b), 7-0-(2,6-dideoxy-2-fluoro-α-L-talopyranosyl) adriamycinone 14-0-hemisuberate]",solubility,[1],30 mg/mL
"COc1cccc2c1C(=O)c1c(O)c3c(c(O)c1C2=O)CC(O)(C(=O)CO)CC3OC1OC(C)C(O)C(O)C1F [Control, 7-O-(2,6-dideoxy-2-fluoro-α-L-talopyranosyl)adriamycinone, reference compound]",solubility,[1],< 1 mg/mL
